# Test system: egg of the two-spotted mite
# Assay: Mite Ovicide Test
# Assay type: in vivo, Tetranychus urticae (Koch)
# Design: key to Mite Ova rating: 1: no mortality; 3: an approximately 50% mortality; 5: 100% mortality
# Conditions: 500 ppm
# Text: (§1) The test procedures were as follows:
# The plants were allowed to dry thoroughly.
# (§2) Compositions were rated on the basis of percent kill with a rating of 1 indicating no mortality; 3 signifying an approximately 50% mortality and 5 indicating 100% mortality at the indicated dosage.
row,SMILES,Mite ova kill
1,"Cc1cccc(C)c1C(=O)OC1=C(c2c(Cl)cccc2Cl)C(=O)c2ccccc21 [3-(2,6-Dimethylbenzoyloxy)-2-(2',6'-dichlorophenyl)indone]",About 20%

# Same assay, conditions: spray on eggs, 4 days
row,SMILES,Mite Ova rating
1,"Cc1cc(C)c(NC(=O)OC2=C(c3c(C)cc(C)cc3C)C(=O)c3ccccc32)c(C)c1 [2-(2',4',6'-Trimethylphenyl)-3-(N-(2,4,6-Trimethylphenyl)-carbamoyloxy)indone]",5 (100% mortality)
2,"COc1cccc(C(=O)OC2=C(c3c(C)cc(C)cc3C)C(=O)c3ccccc32)c1 [3-(3-Methoxybenzoyloxy)-2-(2',4',6'-trimethylphenyl)indone]",5 (100% mortality)
3,"Cc1cc(C)c(C2=C(OC(=O)NC(C)(C)C)c3ccccc3C2=O)c(C)c1 [2-(2',4',6'-Trimethylphenyl)-3-(N-(t-butyl)carbamoyloxy)indone]",5 (100% mortality)
4,CCCCCCCCCCCCCCCCCC(=O)OC1=C(c2ccccc2)C(=O)c2ccccc21 [2-Phenyl-3-(stearoyloxy)indone],1
5,"CCCCCCCCCCCC(=O)OC1=C(c2c(C)cc(C)cc2C)C(=O)c2ccccc21 [2-(2',4',6'-Trimethylphenyl)-3-(dodecanoyloxy)indone]",5 (100% mortality)
6,"Cc1cc(C)c(C2=C(OC(=O)N(C)c3ccccc3)c3ccccc3C2=O)c(C)c1 [2-(2',4',6'-Trimethylphenyl)-3-(N-methyl-N-phenylcarbamoyloxy)indone]",3 (an approximately 50% mortality)
7,"Cc1cccc(C)c1C1=C(OC(=O)C(C)(C)C)c2ccccc2C1=O [2-(2',6'-Dimethylphenyl)-3-(pivaloyloxy)indone]",5 (100% mortality)
8,CCCCCCCCCCCCCCCCCC(=O)OC1=C(c2ccccc2Cl)C(=O)c2ccccc21 [2-(2'-Chlorophenyl)-3-(stearoyloxy)indone],5 (100% mortality)
9,"Cc1cc(C)c(C2=C(OC(=O)Cl)c3ccccc3C2=O)c(C)c1 [2-(2',4',6'-Trimethylphenyl)-3-(chlorocarbonyloxy)indone]",5 (100% mortality)
10,"CCCCC(=O)OC1=C(c2c(C)cc(C)cc2C)C(=O)c2ccccc21 [2-(2',4',6'-Trimethylphenyl)-3-(pentanoyloxy)indone]",5 (100% mortality)
11,CCC(CC)C(=O)OC1=C(c2ccc(C(C)C)cc2)C(=O)c2ccccc21 [3-(2-ethylbutanoyloxy)-2-(4'-isopropylphenyl)indone],1
12,"CCCCCCCCCCCCCCCCCC(=O)OC1=C(c2ccc(C)cc2C)C(=O)c2ccccc21 [2-(2',4'-Dimethylphenyl)-3-(stearoyloxy)indone]",5 (100% mortality)
13,"Cc1cc(C)c(C2=C(OC(=O)c3ccccc3)c3ccccc3C2=O)c(C)c1 [3-Benzoxyloxy-2-(2',4',6'-trimethylphenyl)indone]",5 (100% mortality)
14,CC(C)(C)C(=O)OC1=C(c2ccccc2Cl)C(=O)c2ccccc21 [2-(2'-Chlorophenyl)-3-(pivaloyloxy)indone],5 (100% mortality)
15,"CCCC(=O)OC1=C(c2c(C)cc(C)cc2C)C(=O)c2ccccc21 [2-(2',4',6'-Trimethylphenyl)-3-(butyryloxy)indone]",5 (100% mortality)
16,"Cc1cccc(C)c1C(=O)OC1=C(c2c(Cl)cccc2Cl)C(=O)c2ccccc21 [3-(2,6-Dimethylbenzoyloxy)-2-(2',6'-dichlorophenyl)indone]",1

# Test system: adults and nymphal stages of the two-spotted mite
# Assay: Mite Foliage Spray Test
# Assay type: in vivo, Tetranychus urticae (Koch)
# Design: key: 1: no mortality; 3: an approximately 50% mortality; 5: 100% mortality
# Conditions: 4 days
# Text: as §1, §2
row,SMILES,Mite Adult rating
1,"Cc1cc(C)c(NC(=O)OC2=C(c3c(C)cc(C)cc3C)C(=O)c3ccccc32)c(C)c1 [2-(2',4',6'-Trimethylphenyl)-3-(N-(2,4,6-Trimethylphenyl)-carbamoyloxy)indone]",5 (100% mortality)
2,"COc1cccc(C(=O)OC2=C(c3c(C)cc(C)cc3C)C(=O)c3ccccc32)c1 [3-(3-Methoxybenzoyloxy)-2-(2',4',6'-trimethylphenyl)indone]",5 (100% mortality)
3,"Cc1cc(C)c(C2=C(OC(=O)NC(C)(C)C)c3ccccc3C2=O)c(C)c1 [2-(2',4',6'-Trimethylphenyl)-3-(N-(t-butyl)carbamoyloxy)indone]",5 (100% mortality)
4,CCCCCCCCCCCCCCCCCC(=O)OC1=C(c2ccccc2)C(=O)c2ccccc21 [2-Phenyl-3-(stearoyloxy)indone],1
5,"CCCCCCCCCCCC(=O)OC1=C(c2c(C)cc(C)cc2C)C(=O)c2ccccc21 [2-(2',4',6'-Trimethylphenyl)-3-(dodecanoyloxy)indone]",5 (100% mortality)
6,"Cc1cc(C)c(C2=C(OC(=O)N(C)c3ccccc3)c3ccccc3C2=O)c(C)c1 [2-(2',4',6'-Trimethylphenyl)-3-(N-methyl-N-phenylcarbamoyloxy)indone]",1
7,"Cc1cccc(C)c1C1=C(OC(=O)C(C)(C)C)c2ccccc2C1=O [2-(2',6'-Dimethylphenyl)-3-(pivaloyloxy)indone]",5 (100% mortality)
8,CCCCCCCCCCCCCCCCCC(=O)OC1=C(c2ccccc2Cl)C(=O)c2ccccc21 [2-(2'-Chlorophenyl)-3-(stearoyloxy)indone],1
9,"Cc1cc(C)c(C2=C(OC(=O)Cl)c3ccccc3C2=O)c(C)c1 [2-(2',4',6'-Trimethylphenyl)-3-(chlorocarbonyloxy)indone]",5 (100% mortality)
10,"CCCCC(=O)OC1=C(c2c(C)cc(C)cc2C)C(=O)c2ccccc21 [2-(2',4',6'-Trimethylphenyl)-3-(pentanoyloxy)indone]",5 (100% mortality)
11,CCC(CC)C(=O)OC1=C(c2ccc(C(C)C)cc2)C(=O)c2ccccc21 [3-(2-ethylbutanoyloxy)-2-(4'-isopropylphenyl)indone],1
12,"CCCCCCCCCCCCCCCCCC(=O)OC1=C(c2ccc(C)cc2C)C(=O)c2ccccc21 [2-(2',4'-Dimethylphenyl)-3-(stearoyloxy)indone]",3 (an approximately 50% mortality)
13,"Cc1cc(C)c(C2=C(OC(=O)c3ccccc3)c3ccccc3C2=O)c(C)c1 [3-Benzoxyloxy-2-(2',4',6'-trimethylphenyl)indone]",5 (100% mortality)
14,CC(C)(C)C(=O)OC1=C(c2ccccc2Cl)C(=O)c2ccccc21 [2-(2'-Chlorophenyl)-3-(pivaloyloxy)indone],5 (100% mortality)
15,"CCCC(=O)OC1=C(c2c(C)cc(C)cc2C)C(=O)c2ccccc21 [2-(2',4',6'-Trimethylphenyl)-3-(butyryloxy)indone]",5 (100% mortality)
16,"Cc1cccc(C)c1C(=O)OC1=C(c2c(Cl)cccc2Cl)C(=O)c2ccccc21 [3-(2,6-Dimethylbenzoyloxy)-2-(2',6'-dichlorophenyl)indone]",1

# Test system: Perennial rye grass, crabgrass, red root pigweed, mustard
# Assay: Preliminary Herbicide Seed Germination Test
# Conditions: rating/maximum 15: 100 ppm only, crabgrass omitted, each rated 1 (no injury) to 5 (no seedlings emerged)
row,SMILES,Herbicide (total preemergence rating)
1,"CCCCC(=O)OC1=C(c2c(C)cc(C)cc2C)C(=O)c2ccccc21 [2-(2',4',6'-Trimethylphenyl)-3-(pentanoyloxy)indone]",15/15
2,"CCCC(=O)OC1=C(c2c(C)cc(C)cc2C)C(=O)c2ccccc21 [2-(2',4',6'-Trimethylphenyl)-3-(butyryloxy)indone]",15/15

# Same assay, conditions: rating/maximum 20: 100 ppm only, four species, each rated 1 (no injury) to 5 (no seedlings emerged)
row,SMILES,Herbicide (total preemergence rating)
1,"Cc1cc(C)c(NC(=O)OC2=C(c3c(C)cc(C)cc3C)C(=O)c3ccccc32)c(C)c1 [2-(2',4',6'-Trimethylphenyl)-3-(N-(2,4,6-Trimethylphenyl)-carbamoyloxy)indone]",4/20
2,"Cc1cc(C)c(C2=C(OC(=O)NC(C)(C)C)c3ccccc3C2=O)c(C)c1 [2-(2',4',6'-Trimethylphenyl)-3-(N-(t-butyl)carbamoyloxy)indone]",15/20
3,CCCCCCCCCCCCCCCCCC(=O)OC1=C(c2ccccc2)C(=O)c2ccccc21 [2-Phenyl-3-(stearoyloxy)indone],4/20
4,"CCCCCCCCCCCC(=O)OC1=C(c2c(C)cc(C)cc2C)C(=O)c2ccccc21 [2-(2',4',6'-Trimethylphenyl)-3-(dodecanoyloxy)indone]",17/20
5,"Cc1cc(C)c(C2=C(OC(=O)N(C)c3ccccc3)c3ccccc3C2=O)c(C)c1 [2-(2',4',6'-Trimethylphenyl)-3-(N-methyl-N-phenylcarbamoyloxy)indone]",10/20
6,CCCCCCCCCCCCCCCCCC(=O)OC1=C(c2ccccc2Cl)C(=O)c2ccccc21 [2-(2'-Chlorophenyl)-3-(stearoyloxy)indone],4/20
7,"Cc1cc(C)c(C2=C(OC(=O)Cl)c3ccccc3C2=O)c(C)c1 [2-(2',4',6'-Trimethylphenyl)-3-(chlorocarbonyloxy)indone]",13/20
8,CCC(CC)C(=O)OC1=C(c2ccc(C(C)C)cc2)C(=O)c2ccccc21 [3-(2-ethylbutanoyloxy)-2-(4'-isopropylphenyl)indone],4/20
9,"CCCCCCCCCCCCCCCCCC(=O)OC1=C(c2ccc(C)cc2C)C(=O)c2ccccc21 [2-(2',4'-Dimethylphenyl)-3-(stearoyloxy)indone]",14/20
10,"Cc1cccc(C)c1C(=O)OC1=C(c2c(Cl)cccc2Cl)C(=O)c2ccccc21 [3-(2,6-Dimethylbenzoyloxy)-2-(2',6'-dichlorophenyl)indone]",4/20

# Same assay, conditions: rating/maximum 30: 100 and 1000 ppm, crabgrass omitted, each rated 1 (no injury) to 5 (no seedlings emerged)
row,SMILES,Herbicide (total preemergence rating)
1,"COc1cccc(C(=O)OC2=C(c3c(C)cc(C)cc3C)C(=O)c3ccccc32)c1 [3-(3-Methoxybenzoyloxy)-2-(2',4',6'-trimethylphenyl)indone]",25/30

# Same assay, conditions: rating/maximum 40: 100 and 1000 ppm, four species, each rated 1 (no injury) to 5 (no seedlings emerged), 10-12 days
row,SMILES,Herbicide (total preemergence rating)
1,"Cc1cccc(C)c1C1=C(OC(=O)C(C)(C)C)c2ccccc2C1=O [2-(2',6'-Dimethylphenyl)-3-(pivaloyloxy)indone]",31/40
2,"Cc1cc(C)c(C2=C(OC(=O)c3ccccc3)c3ccccc3C2=O)c(C)c1 [3-Benzoxyloxy-2-(2',4',6'-trimethylphenyl)indone]",31/40
3,CC(C)(C)C(=O)OC1=C(c2ccccc2Cl)C(=O)c2ccccc21 [2-(2'-Chlorophenyl)-3-(pivaloyloxy)indone],18/40
